US20250144069A1, “BILOBALIDE DERIVATIVE COMPOUNDS FOR TREATING NEUROLOGICAL DISEASES AND CANCERS” (The Chinese University of Hong Kong, priority 2023, published 2025)
Read-outs that look alike come from different tables or passages of the source.

How the values were obtained:
Format in all cases: cell-based, human
[1] = tested on: Jurkat cells; assay: Single-dose CCK-8 cell viability screening (suspension cells); settings: Homo sapiens, Jurkat, 48 h
Description: (§1) In this example, the anti-cancer properties of the BB analogues described in Table 1d were evaluated. Single-dose screening approach is used for initial testing to assess the cytotoxic effect of the BB analogues (also referred to as ‘BB compounds’) on Jurkat cells (human T cell leukaemia cells) and A549 cells (human lung cancer cells).
Method for Suspension Cells (Jurkat Cells)
5000 cells/90 uL were seeded in 96-well plates. 10 uL of 500 uM compound (10×) was added to each well in 6 replicates. The following controls were prepared.
Blank control: 10 uL 1% DMSO in media with no cells per well.
Positive control: 10 uL of 100 uM 5-flurouracil (10×) per well.
Negative control: 10 uL of 1% DMSO in media (10×) per well.
Each 96-well plate included 7 BB analogues and the complete set of controls (in 6 replicates).
(§2) Cells were incubated at 37° C.+5% CO2 for 46 hours. 10 uL of CCK8 solution was added to each well. Cells were then incubated at 37° C.+5% CO2 for 2 hours. Absorbance at 450 nm was measured using a multiplate reader.
(§3) Viability was calculated using the equation: […]
(§4) The benchmark in Table 2 was used to define the activities of each compound.

[2] = tested on: A549 cells; assay: Single-dose CCK-8 cell viability screening (adherent cells); settings: Homo sapiens, A549, 48 h
Description: as §1
(§5) Method for Adherent Cells (A549 Cells)
(§6) In this example, 5000 cells/100 uL were seeded in 96-well plates and incubate at 37° C.+5% CO2 overnight. Media were replaced with 100 uL of 50 uM compound per well in 6 replicates. The following controls were prepared.
(§7) Blank control: 100 uL 0.1% DMSO in media with no cells per well.
(§8) Positive control: 100 uL of 10 uM 5-flurouracil per well.
(§9) Negative control: 100 uL of 0.1% DMSO in media per well.
(§10) Each 96-well plate included 7 compounds and the complete set of controls (in 6 replicates).
as §2, §3, §4

[3] = as above; settings: Homo sapiens, average of A549 and Jurkat % viability, 50 uM, 48 h
Description: as §1, §5, §6, §7, §8, §9, §10, §2, §3, §4

[4] = Jurkat cells, 50 uM, CCK-8, read-out: % Viability (50 uM, 48 h) Jurkat
[5] = A549 cells, 50 uM, 48 h, CCK-8, read-out: % Viability (50 uM, 48 h) A549
[6] = read-out: % Viability (50 uM, 48 h) Jurkat
[7] = read-out: % Viability (50 uM, 48 h) A549

Row | SMILES | viability at 50 µM [1, 4] | viability at 50 µM [2, 5] | viability at 50 µM ([3]; A549, 48 h) | viability at 50 µM [1, 6] | viability at 50 µM [2, 7] | viability at 50 µM [3] | viability at 50 µM ([1]; read-out: % Viability (50 uM, 48 h) Jurkat, Jurkat cells, 50 uM, 48 h, CCK-8) | viability at 50 µM ([2]; read-out: % Viability (50 uM, 48 h) A549, A549 cells, 50 uM, 48 h, CCK-8)
1 | CC(C)(C)[C@]1(O)C[C@@H]2OC(=O)C[C@@]23C(=O)O[C@@H]2N(c4ccc(C#N)cc4)C(=O)[C@H](OC(=O)c4ccccc4)[C@]213 [JW107, (3aS,5aS,8R,9R,10aS)-9-(tert-butyl)-6-(4-cyanophenyl)-9-hydroxy-2,4,7-trioxodecahydrofuro [3″,2″:2′,3′]cyclopenta [1′,2′:3,4]furo [2,3-b]pyrrol-8-yl benzoate] | 70.2% | 75.2% | 72.7% |  |  |  |  | 
2 | CC(C)(C)[C@]1(O)C[C@@H]2OC(=O)C[C@@]23C(=O)O[C@@H]2N(c4ccccc4)C(=O)[C@H](O)[C@]213 [JW116, (3aS,5aS,8R,8aS,9R,10aS)-9-(tert-butyl)-8,9-dihydroxy-6-phenyltetrahydro-4H,9H-furo[3″,2″:2′,3′]cyclopenta[1′,2′:3,4]furo[2,3-b]pyrrole-2,4,7(3H,8H)-trione] |  |  | 91.2% | 105% | 77.7% |  |  | 
3 | CC(C)(C)[C@]1(O)C[C@@H]2OC(=O)C[C@@]23C(=O)O[C@@H]2N(C[C@H]4CCCO4)C(=O)[C@H](OC(=O)c4ccccc4)[C@]213 [P-5, (3aS,5aS,8R,8aS,9R,10aS)-9-(tert-butyl)-9-hydroxy-2,4,7-trioxo-6-(((R)-tetrahydrofuran-2-yl)methyl) octahydro-4H,9H-furo [3″,2″:2′,3′]cyclopenta [1′,2′:3,4]furo[2,3-b]pyrrol-8-yl benzoate] | 75.7% | 98.7% | 87.2% |  |  |  |  | 
4 | CC(C)(C)[C@]1(O)C[C@@H]2OC(=O)C[C@@]23C(=O)O[C@@H]2N(c4cc(F)cc(F)c4)C(=O)[C@H](OC(=O)c4ccccc4)[C@]213 [P-19, (3aS,5aS,8R,8aS,9R,10aS)-9-(tert-butyl)-9-hydroxy-2,4,7-trioxo-6-(3,5-difluoro-phenyl)octahydro-4H,9H-furo [3″,2″:2′,3′]cyclopenta [1′,2′:3,4]furo [2,3-b]pyrrol-8-yl benzoate] | 70.2% | 50.2% | 60.2% |  |  |  |  | 
5 | CC(C)(C)[C@]1(O)C[C@@H]2OC(=O)C[C@@]23C(=O)O[C@@H]2N(c4ccc(F)cc4)C(=O)[C@H](OC(=O)c4ccccc4)[C@]213 [P-28, (3aS,5aS,8R,9R,10aS)-9-(tert-butyl)-9-hydroxy-2,4,7-trioxo-6-(4-fluorophenyl)octahydro-4H,9H-furo [3″,2″:2′,3′]cyclopenta [1′,2′:3,4]furo [2,3-b]pyrrol-8-yl benzoate] |  |  | 72.7% | 69.2% | 76.2% |  |  | 
6 | Cc1ccc(N2C(=O)[C@H](OC(=O)c3ccccc3)[C@@]34[C@@H]2OC(=O)[C@@]32CC(=O)O[C@H]2C[C@@]4(O)C(C)(C)C)cc1 [P-30, (3aS,5aS,8R,9R,10aS)-9-(tert-butyl)-9-hydroxy-2,4,7-trioxo-6-(toluyl)octahydro-4H,9H-furo [3″,2″:2′,3′]cyclopenta [1′,2′:3,4]furo [2,3-b]pyrrol-8-yl benzoate] | 61.3% | 56.9% | 59.1% |  |  |  |  | 
7 | Cc1cccc(N2C(=O)[C@H](OC(=O)c3ccccc3)[C@@]34[C@@H]2OC(=O)[C@@]32CC(=O)O[C@H]2C[C@@]4(O)C(C)(C)C)c1 [P-33, (3aS,5aS,8R,9R,10aS)-9-(tert-butyl)-9-hydroxy-2,4,7-trioxo-6-(3-methylphenyl)octahydro-4H,9H-furo [3″,2″:2′,3′]cyclopenta [1′,2′:3,4]furo [2,3-b]pyrrol-8-yl benzoate] | 66% | 61.1% | 63.5% |  |  |  |  | 
8 | Cc1ccccc1N1C(=O)[C@H](OC(=O)c2ccccc2)[C@@]23[C@@H]1OC(=O)[C@@]21CC(=O)O[C@H]1C[C@@]3(O)C(C)(C)C [P-34, (3aS,5aS,8R,9R,10aS)-9-(tert-butyl)-9-hydroxy-2,4,7-trioxo-6-(2-methylphenyl)octahydro-4H,9H-furo [3″,2″:2′,3′]cyclopenta [1′,2′:3,4]furo [2,3-b]pyrrol-8-yl benzoate] | 73.8% | 80.2% | 77% |  |  |  |  | 
9 | CC(C)(C)[C@]1(O)C[C@@H]2OC(=O)C[C@@]23C(=O)O[C@@H]2NC(=O)[C@H](OC(=O)c4ccccc4)[C@]213 [XBB-004, (3aS,5aS,8R,8aS,9R,10aS)-9-(tert-butyl)-9-hydroxy-2,4,7-trioxooctahydro-4H,9H-furo[3″,2″:2′,3′]cyclopenta[1′,2′:3,4]furo[2,3-b]pyrrol-8-yl benzoate] |  |  |  | 95% | 98.5% | 96.7% |  | 
10 | C=C(C)[C@@]1(C)C[C@@H]2OC(=O)C[C@@]23C(=O)O[C@@H]2OC(=O)[C@H](OC(C)=O)[C@]213 [XBB-009] |  |  |  | 107% | 103% | 105% |  | 
11 | CC(=O)O[C@H]1C(=O)N[C@H]2OC(=O)[C@]34CC(=O)O[C@H]3C=C(C(C)(C)C)[C@@]214 [XBB-010, (3aS,5aS,8R,8aS,10aS)-9-(tert-butyl)-2,4,7-trioxo-2,3,5a,6,7,8-hexahydro-4H,10aH-furo[3″,2″:2′,3′]cyclopenta[1′,2′:3,4]furo[2,3-b]pyrrol-8-yl acetate] |  |  | 114% |  |  |  | 115% | 112%
12 | C=C(C)[C@@]1(C)C[C@@H]2OC(=O)C[C@@]23C(=O)O[C@@H]2NC(=O)[C@H](O)[C@]213 [XBB-013] |  |  |  | 107% | 100% | 104% |  | 
13 | CC(C)(C)[C@]1(O)C[C@@H]2OC(=O)C[C@@]23C(=O)O[C@@H]2N(Cc4ccccc4)C(=O)[C@H](OC(=O)c4ccccc4)[C@]213 [XBB-016] | 107% | 105% | 106% |  |  |  |  | 
14 | COc1ccc(CN2C(=O)[C@H](OC(=O)c3ccccc3)[C@@]34[C@@H]2OC(=O)[C@@]32CC(=O)O[C@H]2C[C@@]4(O)C(C)(C)C)c(OC)c1 [XBB-018, (3aS,5aS,8R,8aS,9R,10aS)-6-(2,4-dimethoxy-benzyl-9-(tert-butyl)-9-hydroxy-2,4,7-trioxooctahydro-4H,9H-furo [3″,2″:2′,3′]cyclopenta [1′,2′:3,4]furo [2,3-b]pyrrol-8-yl benzoate] | 102% | 86.5% | 94.5% |  |  |  |  | 
15 | CC(C)(C)OC(=O)N1CCC(CCN2C(=O)[C@H](OC(=O)c3ccccc3)[C@@]34[C@@H]2OC(=O)[C@@]32CC(=O)O[C@H]2C[C@@]4(O)C(C)(C)C)CC1 [XBB-023, tert-butyl 4-(2-((3aS,5aS,8R,8aS,9R,10aS)-8-(benzoyloxy)-9-(tert-butyl)-9-hydroxy-2,4,7-trioxohexahydro-4H,9H-furo[3″,2″:2′,3′]cyclopenta[1′,2′:3,4]furo[2,3-b]pyrrol-6(5aH)-yl)ethyl)piperidine-1-carboxylate] | 71.3% | 72.1% | 71.7% |  |  |  |  | 
16 | CC(C)(C)OC(=O)N1CCC(CCCN2C(=O)[C@H](OC(=O)c3ccccc3)[C@@]34[C@@H]2OC(=O)[C@@]32CC(=O)O[C@H]2C[C@@]4(O)C(C)(C)C)CC1 [XBB-025] | 83.3% | 100% | 91.7% |  |  |  |  | 
17 | Cc1c(CCN2C(=O)[C@H](OC(=O)c3ccccc3)[C@@]34[C@@H]2OC(=O)[C@@]32CC(=O)O[C@H]2C[C@@]4(O)C(C)(C)C)[nH]c2ccccc12 [XBB-029, (3aS,5aS,8R,8aS,9R,10aS)-9-(tert-butyl)-9-hydroxy-6-(2-(3-methyl-1H-indol-2-yl)ethyl)-2,4,7-trioxooctahydro-4H,9H-furo [3″,2″:2′,3′]cyclopenta[1′,2′:3,4]furo[2,3-b]pyrrol-8-yl benzoate] | 93.4% | 96.1% | 94.8% |  |  |  |  | 
18 | CC(C)(C)[C@]1(O)C[C@@H]2OC(=O)C[C@@]23C(=O)O[C@@H]2N(c4ccccc4)C(=O)[C@H](OC(=O)c4ccccc4)[C@]213 [XBB-034, (3aS,5aS,8R,8aS,9R,10aS)-9-(tert-butyl)-9-hydroxy-2,4,7-trioxo-6-phenyloctahydro-4H,9H-furo[3″,2″:2′,3′]cyclopenta [1′,2′:3,4]furo[2,3-b]pyrrol-8-yl benzoate] |  |  |  | 89.1% | 56% | 72.5% |  | 
